The record followed here is patent publication US20090036509A1, “N-(Ortho-Phenyl)-1-Methyl -3-Trifluoromethlpyrazole-4-Carboxanilides and Their Use as Fungicides” (BASF Aktiengesellschaft, priority 2004, published 2009).

In one experiment the test system is Puccinia recondita. Kind of experiment: Curative activity against brown rust of wheat caused by Puccinia recondita. The experiment is classed as in vivo. To be noted: wheat seedlings sprayed 1 day after inoculation, rated after 7 days, untreated 90%; for Infection in % at 4 ppm using PUCCRT K1: Use Example 2. Here is the method:
The active compounds were prepared as a stock solution with 25 mg of active compound which was made up to 10 ml with a mixture of acetone and/or DMSO and the emulsifier Uniperol® EL (wetting agent having emulsifying and dispersing action based on ethoxylated alkyl phenols) in a volume ratio solvent/emulsifier of 99 to 1. The solution was then made up to 100 ml with water. This stock solution was diluted to the active compound concentrations stated below using the solvent/emulsifier/water mixture described. Curative Activity Against Brown Rust of Wheat Caused by Puccinia Recondita Leaves of potted wheat seedlings of the cultivar “Kanzler” were inoculated with a spore suspension of brown rust (Puccinia recondita). The pots were then placed in a chamber with high atmospheric humidity (90 to 95%) and at 20-22° C. for 24 hours. During this time, the spores germinated and the germ tubes penetrated into the leaf tissue. The next day, the infected plants were sprayed to runoff point with an aqueous suspension having the concentration of active compounds stated below. The suspension or emulsion was prepared as described above. After the spray coating had dried on, the test plants were cultivated in a greenhouse at temperatures between 20 and 22° C. and at 65 to 70% relative atmospheric humidity for 7 days. The extent of the rust fungus development on the leaves was then determined. Curative Activity Against Brown Rust of Wheat Caused by Puccinia Recondita Leaves of potted wheat seedlings of the cultivar “Kanzler” were inoculated with a spore suspension of brown rust (Puccinia recondita). The pots were then placed in a chamber with high atmospheric humidity (90 to 95%) and at 20-22° C. for 24 hours During this time, the spores germinated and the germ tubes penetrated into the leaf tissue. The next day, the infected plants were sprayed to runoff point with an aqueous suspension having the concentration of active compounds stated below. The suspension or emulsion was prepared as described above. After the spray coating had dried on, the test plants were cultivated in a greenhouse at temperatures between 20 and 22° C. and at 65 to 70% relative atmospheric humidity for 7 days. The extent of the rust fungus development on the leaves was then determined. Curative Activity Against Brown Rust of Wheat Caused by Puccinia Recondita Leaves of potted wheat seedlings of the cultivar “Kanzler” were inoculated with a spore suspension of brown rust (Puccinia recondita). The pots were then placed in a chamber with high atmospheric humidity (90 to 95%) and at 20-22° C. for 24 hours. During this time, the spores germinated and the germ tubes penetrated into the leaf tissue. The next day, the infected plants were sprayed to runoff point with an aqueous suspension having the concentration of active compounds stated below. The suspension or emulsion was prepared as described above. After the spray coating had dried on, the test plants were cultivated in a greenhouse at temperatures between 20 and 22° C. and at 65 to 70% relative atmospheric humidity for 7 days. The extent of the rust fungus development on the leaves was then determined.

A further experiment concerns Botrytis cinerea. In words: Activity against gray mold on bell pepper leaves caused by Botrytis cinerea, protective application. It is filed as in vivo. To be noted: visual rating after 5 days, untreated 90%. Here is the method:
The active compounds were prepared as a stock solution with 25 mg of active compound which was made up to 10 ml with a mixture of acetone and/or DMSO and the emulsifier Uniperol® EL (wetting agent having emulsifying and dispersing action based on ethoxylated alkyl phenols) in a volume ratio solvent/emulsifier of 99 to 1. The solution was then made up to 100 ml with water. This stock solution was diluted to the active compound concentrations stated below using the solvent/emulsifier/water mixture described. Activity Against Gray Mold on Bell Pepper Leaves Caused by Botrytis Cinerea Protective Application Bell pepper seedlings of the cultivar “Neusiedler Ideal Elite” were, after 2-3 leaves were well developed, sprayed to runoff point with an aqueous suspension having the concentration of active compounds stated below. The next day, the treated plants were inoculated with a spore suspension of Botrytis cinerea which contained 1.7×10^6 spores/ml in a 2% strength aqueous biomalt solution. The test plants were then placed in a dark climatized chamber at 22-24° C. and high atmospheric humidity. After 5 days, the extent of the fungal infection on the leaves could be determined visually in %. […]

[1] abbreviates: Use Example 4, bell pepper seedlings sprayed 1 day before inoculation.
The mark [2] stands for this setting: Use Example 1, bell pepper seedlings sprayed 1 day before inoculation.

For `Cc1cc(Cl)ccc1-c1ccccc1NC(=O)c1cn(C)nc1C(F)(F)F` [67.8], the “Infection in % at 250 ppm using PUCCRT K1” value (“Infection in % at 250 ppm” below) with Puccinia recondita (Use Example 5) came out at 0%. Also, in the experiment on Botrytis cinerea (setting [1]), the “Infection in % at 4 ppm using BOTRCI P1” value is 0%.

Take `Cn1cc(C(=O)Nc2ccccc2-c2ccc(F)cc2)c(C(F)(F)F)n1` [Comp. 37of EP-A05 89 301]: in the experiment with Puccinia recondita, the “Infection in % at 4 ppm using PUCCRT K1” value was 30%. The “Infection in % at 4 ppm using BOTRCI P1” value in the experiment on Botrytis cinerea (setting [2]) was 70%.

`COc1ccc(-c2ccccc2NC(=O)c2cn(C)nc2C(F)(F)F)cc1` [Comp. 38of EP-A05 89 301]: the “Infection in % at 250 ppm” value with Puccinia recondita (Use Example 3) came to 60%.

On to `Cc1ccccc1-c1ccccc1NC(=O)c1cn(C)nc1C(F)(F)F` [Comp. 41of EP-A05 89 301], for which the “Infection in % at 250 ppm” value with Puccinia recondita (Use Example 5) worked out at 60%. In addition, the “Infection in % at 4 ppm using BOTRCI P1” value in the experiment on Botrytis cinerea (setting [1]) is recorded as 25%.

Consider `Cn1cc(C(=O)Nc2ccccc2-c2ccc(F)c(F)c2)c(C(F)(F)F)n1` [Comp. 67.4], for which the “Infection in % at 4 ppm using PUCCRT K1” value with Puccinia recondita was 5%. In the experiment on Botrytis cinerea (setting [2]), the “Infection in % at 4 ppm using BOTRCI P1” value was determined as 40%.

For the compound `COc1ccc(-c2ccccc2NC(=O)c2cn(C)nc2C(F)(F)F)c(F)c1` [Comp. 67.14], in the experiment on Puccinia recondita (Use Example 3), the “Infection in % at 250 ppm” value worked out at 7%.
